The source made the active and inactive calls. The calls are words filed in the database; no cut-off is given here.
Assays:
U-87 MG [1] = test: Antiproliferative activity against human U-87 MG cells assessed as inhibition of cell growth at 100 uM incubated for 48 hrs by MTT assay; type: functional; conditions: U-87MG ATCC
U-251 [2] = test: Antiproliferative activity against human U-251 cells assessed as inhibition of cell growth at 100 uM incubated for 48 hrs by MTT assay; type: functional
T98G [3] = test: Antiproliferative activity against human T98G cells assessed as inhibition of cell growth at 100 uM incubated for 48 hrs by MTT assay; type: functional, cell-based
U-251 [4] = test: Induction of apoptosis in human U-251 cells assessed as late apoptotic cells at 450 uM incubated for 48 hrs by Annexin V-FITC/PI staining based flow cytometry analysis (reference value: 1.3 +/- 0.6%); type: functional
T98G [5] = test: Antiproliferative activity against human T98G cells assessed as inhibition of cell growth incubated for 48 hrs by MTT assay; type: functional, cell-based
U-87 MG [6] = test: Induction of apoptosis in human U-87 MG cells assessed as total apoptotic cells at 450 uM incubated for 48 hrs by Annexin V-FITC/PI staining based flow cytometry analysis (reference value: 16 +/- 1%); type: functional, U-87MG ATCC
U-87 MG [7] = test: Induction of apoptosis in human U-87 MG cells assessed as early apoptotic cells at 450 uM incubated for 48 hrs by Annexin V-FITC/PI staining based flow cytometry analysis (reference value: 1.1 +/- 0.6 %); type: functional, U-87MG ATCC
T98G [8] = test: Induction of apoptosis in human T98G cells assessed as total apoptotic cells at 450 uM incubated for 48 hrs by Annexin V-FITC/PI staining based flow cytometry analysis (reference value: 6.4 +/- 0.8 %); type: functional
U-87 MG [9] = test: Induction of apoptosis in human U-87 MG cells assessed as late apoptotic cells at 450 uM incubated for 48 hrs by Annexin V-FITC/PI staining based flow cytometry analysis (reference value: 11 +/- 1%); type: functional, U-87MG ATCC
U-251 [10] = test: Antiproliferative activity against human U-251 cells assessed as inhibition of cell growth incubated for 48 hrs by MTT assay; type: functional, cell-based; conditions: U-251, 48 h
U-251 [11] = test: Induction of apoptosis in human U-251 cells assessed as early apoptotic cells at 450 uM incubated for 48 hrs by Annexin V-FITC/PI staining based flow cytometry analysis (reference value: 1.5 +/- 0.4 %); type: functional
U-87 MG [12] = test: Antiproliferative activity against human U-87 MG cells assessed as inhibition of cell growth incubated for 48 hrs by MTT assay; type: functional, cell-based, U-87MG ATCC
T98G [13] = test: Induction of apoptosis in human T98G cells assessed as late apoptotic cells at 450 uM incubated for 48 hrs by Annexin V-FITC/PI staining based flow cytometry analysis (reference value: 3.7 +/- 0.3 %); type: functional
U-251 [14] = test: Induction of apoptosis in human U-251 cells assessed as total apoptotic cells at 450 uM incubated for 48 hrs by Annexin V-FITC/PI staining based flow cytometry analysis (reference value: 2.8 +/- 0.3%); type: functional
T98G [15] = test: Induction of apoptosis in human T98G cells assessed as early apoptotic cells at 450 uM incubated for 48 hrs by Annexin V-FITC/PI staining based flow cytometry analysis (reference value: 2.7 +/- 0.5 %); type: functional

Structure (SMILES) | Activity (U-87 MG [1]) | Activity (U-251 [2]) | Activity (T98G [3]) | Activity (U-251 [4]) [%] | IC50 (T98G [5]) [µM] | Activity (U-87 MG [6]) [%] | Activity (U-87 MG [7]) [%] | Activity (T98G [8]) [%] | Activity (U-87 MG [9]) [%] | IC50 (U-251 [10]) [µM] | Activity (U-251 [11]) [%] | IC50 (U-87 MG [12]) [µM] | Activity (T98G [13]) [%] | Activity (U-251 [14]) [%] | Activity (T98G [15]) [%]
CO[C@@H]1C2=C(OC(C)(C)CC2=O)[C@@H]2O[C@@]23C[C@@H](OC(C)=O)C(C)(C)O[C@@H]13 | inactive | inactive | inactive |  |  |  |  |  |  |  |  |  |  |  | 
CC1(C)CC(=O)C2=C(O1)C(=O)[C@@]1(O)C[C@@H](O)C(C)(C)O[C@H]1[C@@H]2O | inactive | inactive | inactive |  |  |  |  |  |  |  |  |  |  |  | 
Cn1nnc2c(C(N)=O)ncn2c1=O [TEMOZOLOMIDE] |  |  |  | 4.6 | 151 | 15 | 4.2 | 18 | 11 | 189 | 3.7 | 203 | 9.9 | 8.3 | 7.5
CC(=O)O[C@@H]1C[C@]23O[C@H]2[C@]2(O)CC(C)=CC(=O)C2=C[C@@H]3OC1(C)C | inactive | inactive | inactive |  |  |  |  |  |  |  |  |  |  |  | 
